For assay [1], the target named is T1, gastric inhibitory peptide receptor (GIPR) (Homo sapiens, UniProt P48546).
T1 sequence (P48546 22-466): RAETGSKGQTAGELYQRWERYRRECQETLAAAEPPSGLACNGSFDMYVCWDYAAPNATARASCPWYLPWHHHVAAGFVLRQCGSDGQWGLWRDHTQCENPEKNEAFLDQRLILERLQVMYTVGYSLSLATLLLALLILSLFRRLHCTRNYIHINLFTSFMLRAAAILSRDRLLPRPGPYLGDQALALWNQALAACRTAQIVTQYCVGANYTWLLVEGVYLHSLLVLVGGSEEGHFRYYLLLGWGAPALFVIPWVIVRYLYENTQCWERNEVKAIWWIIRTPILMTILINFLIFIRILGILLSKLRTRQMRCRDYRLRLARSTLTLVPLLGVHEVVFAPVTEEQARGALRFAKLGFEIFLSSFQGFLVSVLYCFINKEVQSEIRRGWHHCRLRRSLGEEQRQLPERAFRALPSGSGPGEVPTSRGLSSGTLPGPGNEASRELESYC
Kind of assay: cAMP pharmacological functional assay in presence of casein, hGIPR. It is filed as cell-based. As to conditions: HEK293 cells expressing hGIPR, 0.1% Casein, geometric mean; read-out: hGIPR cAMP Rel EC50 nM (SEM, n).

The target in assay [2] is human GLP-1 receptor (GLP-1R) (Homo sapiens, UniProt P43220). Kind of assay: cAMP pharmacological functional assay in presence of casein, hGLP-1R. It is filed as cell-based. As to conditions: HEK293 cells expressing hGLP-1R, 0.1% Casein, geometric mean; read-out: hGLP1R cAMP Rel EC50 nM (SEM, n).

Numbered stars: 1 amine (or outer) side, 2 acyl side, 3 side chain; on linkers, the order of the positions; unused ones are H or OH. Square brackets hold non-standard residues; d marks the D form. Side chains are listed from the residue outwards. Peptide text beside a SMILES is read from it. * marks the point of attachment. C20 diacid = O=C(O)CCCCCCCCCCCCCCCCCCC(=O)*; γGlu = O=C(O)[C@H](CCC(=O)[*:2])N[*:1]; AEEA = NCCOCCOCC(=O)O; Aib = CC(C)(N)C(=O)O

human GLP-1 receptor (GLP-1R), sequence (P43220 24-463): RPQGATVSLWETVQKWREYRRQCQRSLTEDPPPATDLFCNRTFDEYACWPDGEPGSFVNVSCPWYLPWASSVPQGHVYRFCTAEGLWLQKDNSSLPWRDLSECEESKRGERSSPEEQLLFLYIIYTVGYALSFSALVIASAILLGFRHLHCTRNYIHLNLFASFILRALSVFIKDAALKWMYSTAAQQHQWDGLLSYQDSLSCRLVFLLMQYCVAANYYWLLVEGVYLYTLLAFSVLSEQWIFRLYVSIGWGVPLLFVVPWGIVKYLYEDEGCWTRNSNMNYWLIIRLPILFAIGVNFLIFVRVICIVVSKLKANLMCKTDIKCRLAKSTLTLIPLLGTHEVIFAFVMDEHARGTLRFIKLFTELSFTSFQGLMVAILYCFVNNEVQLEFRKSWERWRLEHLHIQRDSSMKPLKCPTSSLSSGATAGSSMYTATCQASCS

Turning to `CC[C@H](C)[C@H](NC(=O)[C@H](CC(C)C)NC(=O)[C@H](Cc1ccc(O)cc1)NC(=O)[C@H](CCC(=O)O)NC(=O)[C@@H](NC(=O)[C@H](Cc1ccccc1)NC(=O)[C@H](C)NC(=O)[C@H](CCCNC(=N)N)NC(=O)[C@H](CCC(N)=O)NC(=O)[C@H](C)NC(=O)[C@H](CCCCNC(=O)COCCOCCNC(=O)COCCOCCNC(=O)CC[C@H](NC(=O)CCCCCCCCCCCCCCCCCCC(=O)O)C(=O)O)NC(=O)[C@H](CCCCN)NC(=O)[C@H](CC(=O)O)NC(=O)[C@H](CC(C)C)NC(=O)[C@H](CC(C)C)NC(=O)[C@@H](NC(=O)[C@H](CO)NC(=O)[C@H](Cc1ccc(O)cc1)NC(=O)[C@H](CC(=O)O)NC(=O)[C@H](CO)NC(=O)[C@@H](NC(=O)[C@H](Cc1ccccc1)NC(=O)[C@@H](NC(=O)CNC(=O)[C@H](CCC(=O)O)NC(=O)C(C)(C)NC(=O)[C@@H](N)Cc1ccc(O)cc1)[C@@H](C)O)[C@@H](C)O)[C@@H](C)CC)[C@@H](C)CC)C(=O)N[C@@H](CCC(=O)O)C(=O)NCC(=O)NCC(=O)N1CCC[C@H]1C(=O)N[C@@H](CO)C(=O)N[C@@H](CO)C(=O)NCC(=O)N[C@@H](C)C(=O)N1CCC[C@H]1C(=O)N1CCC[C@H]1C(=O)N1CCC[C@H]1C(=O)N[C@@H](CO)C(N)=O` [Example 257] (H-Y[Aib]EGTFTSDYSILLDKK([AEEA-AEEA-γGlu-C20 diacid])AQRAFIEYLIEGGPSSGAPPPS-NH2; N-terminus assumed), the EC50 (usually the concentration at which the effect is half-maximal) worked out at 0.474 nM in assay [1] and 0.0779 nM in assay [2].

`CC[C@H](C)[C@H](NC(=O)[C@H](CC(C)C)NC(=O)[C@H](Cc1ccc(O)cc1)NC(=O)[C@H](CCC(=O)O)NC(=O)[C@@H](NC(=O)[C@H](Cc1ccccc1)NC(=O)[C@H](C)NC(=O)[C@H](CCCCN)NC(=O)[C@H](CCC(N)=O)NC(=O)[C@H](C)NC(=O)[C@H](CCCCNC(=O)COCCOCCNC(=O)COCCOCCNC(=O)CC[C@H](NC(=O)CCCCCCCCCCCCCCCCCCC(=O)O)C(=O)O)NC(=O)[C@H](CCC(=O)O)NC(=O)[C@H](CC(=O)O)NC(=O)[C@H](CC(C)C)NC(=O)[C@H](CC(C)C)NC(=O)[C@@H](NC(=O)[C@H](CO)NC(=O)[C@H](Cc1ccc(O)cc1)NC(=O)[C@H](CC(=O)O)NC(=O)[C@H](CO)NC(=O)[C@@H](NC(=O)[C@H](Cc1ccccc1)NC(=O)[C@@H](NC(=O)CNC(=O)[C@H](CCC(=O)O)NC(=O)C(C)(C)NC(=O)[C@@H](N)Cc1ccc(O)cc1)[C@@H](C)O)[C@@H](C)O)[C@@H](C)CC)[C@@H](C)CC)C(=O)N[C@@H](CCC(=O)O)C(=O)NCC(=O)NCC(=O)N1CCC[C@H]1C(=O)N[C@@H](CO)C(=O)N[C@@H](CO)C(=O)NCC(=O)N[C@@H](C)C(=O)N1CCC[C@H]1C(=O)N1CCC[C@H]1C(=O)N1CCC[C@H]1C(=O)N[C@@H](CO)C(N)=O` [Example 258] (H-Y[Aib]EGTFTSDYSILLDEK([AEEA-AEEA-γGlu-C20 diacid])AQKAFIEYLIEGGPSSGAPPPS-NH2; N-terminus assumed): the EC50 in assay [1] was found to be 2.43 nM; in assay [2] it was 0.174 nM.

`CC[C@H](C)[C@H](NC(=O)[C@H](CC(C)C)NC(=O)[C@H](Cc1ccc(O)cc1)NC(=O)[C@H](CCC(=O)O)NC(=O)[C@@H](NC(=O)[C@H](Cc1ccccc1)NC(=O)[C@H](C)NC(=O)C(C)(C)NC(=O)[C@H](CCC(N)=O)NC(=O)[C@H](C)NC(=O)[C@H](CCCCNC(=O)COCCOCCNC(=O)COCCOCCNC(=O)CC[C@H](NC(=O)CCCCCCCCCCCCCCCCCCC(=O)O)C(=O)O)NC(=O)[C@H](CCC(=O)O)NC(=O)[C@H](CC(=O)O)NC(=O)[C@H](CC(C)C)NC(=O)[C@H](CC(C)C)NC(=O)[C@@H](NC(=O)[C@H](CO)NC(=O)[C@H](Cc1ccc(O)cc1)NC(=O)[C@H](CC(=O)O)NC(=O)[C@H](CO)NC(=O)[C@@H](NC(=O)[C@H](Cc1ccccc1)NC(=O)[C@@H](NC(=O)CNC(=O)[C@H](CCC(=O)O)NC(=O)C(C)(C)NC(=O)[C@@H](N)Cc1ccc(O)cc1)[C@@H](C)O)[C@@H](C)O)[C@@H](C)CC)[C@@H](C)CC)C(=O)N[C@@H](CCC(=O)O)C(=O)NCC(=O)NCC(=O)N1CCC[C@H]1C(=O)N[C@@H](CO)C(=O)N[C@@H](CO)C(=O)NCC(=O)N[C@@H](C)C(=O)N1CCC[C@H]1C(=O)N1CCC[C@H]1C(=O)N1CCC[C@H]1C(=O)N[C@@H](CO)C(N)=O` [Example 259] (H-Y[Aib]EGTFTSDYSILLDEK([AEEA-AEEA-γGlu-C20 diacid])AQ[Aib]AFIEYLIEGGPSSGAPPPS-NH2; N-terminus assumed): the EC50 in assay [1] was 0.257 nM; in assay [2], 0.145 nM.

On to `CC[C@H](C)[C@H](NC(=O)[C@H](CC(C)C)NC(=O)[C@H](Cc1ccc(O)cc1)NC(=O)[C@H](CCC(=O)O)NC(=O)[C@@H](NC(=O)[C@H](Cc1ccccc1)NC(=O)[C@H](C)NC(=O)C(C)(C)NC(=O)[C@H](CCC(N)=O)NC(=O)[C@H](C)NC(=O)[C@H](CCCCNC(=O)COCCOCCNC(=O)COCCOCCNC(=O)CC[C@H](NC(=O)CCCCCCCCCCCCCCCCCCC(=O)O)C(=O)O)NC(=O)[C@H](CCCCN)NC(=O)[C@H](CC(=O)O)NC(=O)[C@H](CC(C)C)NC(=O)[C@H](CC(C)C)NC(=O)[C@@H](NC(=O)[C@H](CO)NC(=O)[C@H](Cc1c[nH]cn1)NC(=O)[C@H](CC(=O)O)NC(=O)[C@H](CO)NC(=O)[C@@H](NC(=O)[C@H](Cc1ccccc1)NC(=O)[C@@H](NC(=O)CNC(=O)[C@H](CCC(=O)O)NC(=O)C(C)(C)NC(=O)[C@@H](N)Cc1ccc(O)cc1)[C@@H](C)O)[C@@H](C)O)[C@@H](C)CC)[C@@H](C)CC)C(=O)N[C@@H](CCC(=O)O)C(=O)NCC(=O)NCC(=O)N1CCC[C@H]1C(=O)N[C@@H](CO)C(=O)N[C@@H](CO)C(=O)NCC(=O)N[C@@H](C)C(=O)N1CCC[C@H]1C(=O)N1CCC[C@H]1C(=O)N1CCC[C@H]1C(=O)N[C@@H](CO)C(N)=O` [Example 260] (H-Y[Aib]EGTFTSDHSILLDKK([AEEA-AEEA-γGlu-C20 diacid])AQ[Aib]AFIEYLIEGGPSSGAPPPS-NH2; N-terminus assumed), for which the EC50 in assay [1] is 0.617 nM; in assay [2] it was 0.408 nM.

Consider `CC[C@H](C)[C@H](NC(=O)[C@H](CC(C)C)NC(=O)[C@H](Cc1ccc(O)cc1)NC(=O)[C@H](CCC(=O)O)NC(=O)[C@@H](NC(=O)[C@H](Cc1ccccc1)NC(=O)[C@H](C)NC(=O)[C@H](CCC(=O)O)NC(=O)[C@H](CCC(N)=O)NC(=O)[C@H](C)NC(=O)[C@H](CCCCNC(=O)COCCOCCNC(=O)COCCOCCNC(=O)CC[C@H](NC(=O)CCCCCCCCCCCCCCCCCCC(=O)O)C(=O)O)NC(=O)[C@H](CCCCN)NC(=O)[C@H](CC(=O)O)NC(=O)[C@H](CC(C)C)NC(=O)[C@H](CC(C)C)NC(=O)[C@@H](NC(=O)[C@H](CO)NC(=O)[C@H](Cc1ccc(O)cc1)NC(=O)[C@H](CC(=O)O)NC(=O)[C@H](CO)NC(=O)[C@@H](NC(=O)[C@H](Cc1ccccc1)NC(=O)[C@@H](NC(=O)CNC(=O)[C@H](CCC(=O)O)NC(=O)C(C)(C)NC(=O)[C@@H](N)Cc1ccc(O)cc1)[C@@H](C)O)[C@@H](C)O)[C@@H](C)CC)[C@@H](C)CC)C(=O)N[C@@H](CCC(=O)O)C(=O)NCC(=O)NCC(=O)N1CCC[C@H]1C(=O)N[C@@H](CO)C(=O)N[C@@H](CO)C(=O)NCC(=O)N[C@@H](C)C(=O)N1CCC[C@H]1C(=O)N1CCC[C@H]1C(=O)N1CCC[C@H]1C(=O)N[C@@H](CO)C(N)=O` [Example 261] (H-Y[Aib]EGTFTSDYSILLDKK([AEEA-AEEA-γGlu-C20 diacid])AQEAFIEYLIEGGPSSGAPPPS-NH2), for which the EC50 was 0.16 nM in assay [1] and 0.0948 nM in assay [2].

Source of the values: patent US12252524B2, “GIP/GLP1 co-agonist compounds” (Eli Lilly and Company, priority 2018, dated 2025).
